Reference: patent US10167262B2, “Herbicidal substituted 3-arylpyrazoles” (FMC CORPORATION, priority 2014, dated 2019)

Key:
Assay in all cases: Test E pre-/postemergence greenhouse test, plant response rating 0-100
Assay type in all cases: in vivo
corn (Zea mays) = conditions: Zea mays, post-emergence, Postemergence, scale 0 to 100
Method in brief: (§1)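 Pre: seeded silt loam sprayed; post: 1–4-leaf plants (2–18 cm) in peat-based mix sprayed. Formulation: non-phytotoxic solvent + surfactant. Greenhouse 14–21 d; visual rating vs controls, 0 = no effect, 100 = complete control.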

[1] = test system: waterhemp (common waterhemp, Amaranthus rudis); conditions: Amaranthus tuberculatus, post-emergence, Postemergence, scale 0 to 100
Method in brief: as §1

[2] = test system: field bindweed (Convolvulus arvensis); conditions: Convolvulus arvensis, post-emergence, Postemergence, scale 0 to 100
Method in brief: as §1

[3] = test system: fall panicum (Panicum dichotomiflorum); conditions: Panicum dichotomiflorum, post-emergence, Postemergence, scale 0 to 100
Method in brief: as §1

soybean (Glycine max) = conditions: Glycine max, post-emergence, Postemergence, scale 0 to 100
Method in brief: as §1

[4] = test system: hairy beggarticks (Bidens pilosa); conditions: Bidens pilosa, post-emergence, Postemergence, scale 0 to 100
Method in brief: as §1

[5] = test system: Brazilian crabgrass (Digitaria horizontalis); conditions: Digitaria horizontalis, post-emergence, Postemergence, scale 0 to 100, read-out: Plant response rating, Crabgrass, Brazil
Method in brief: as §1

[6] = test system: palmer pigweed (Amaranthus palmeri); conditions: Amaranthus palmeri, post-emergence, Postemergence, scale 0 to 100
Method in brief: as §1

[7] = test system: dayflower (Virginia (VA) dayflower, Commelina virginica); conditions: Commelina virginica, post-emergence, Postemergence, scale 0 to 100
Method in brief: as §1

[8] = test system: sandbur (southern sandbur, Cenchrus echinatus); conditions: Cenchrus echinatus, post-emergence, Postemergence, scale 0 to 100
Method in brief: as §1

[9] = test system: arrowleaf sida (Sida rhombifolia); conditions: Sida rhombifolia, post-emergence, Postemergence
Method in brief: as §1

[10] = test system: barnyardgrass (Echinochloa crus-galli); conditions: Echinochloa crus-galli, post-emergence, Postemergence, scale 0 to 100
Method in brief: as §1

Molecule `CCOC(OCC)(c1ccccc1)c1c[nH]nc1-c1cc(Cl)cc(Cl)c1` [Compound 14, 3-(3,5-dichlorophenyl)-4-(diethoxyphenylmethyl)-1H-pyrazole] has a Corn plant response rating (crop injury, 0 = no effect, 100 = complete kill) at 31 g/ha (corn (Zea mays); 31 g ai/ha) of 0%, a Corn plant response rating (crop injury, 0 = no effect, 100 = complete kill) at 62 g/ha (corn (Zea mays); 62 g ai/ha) of 0% and a Corn plant response rating (crop injury, 0 = no effect, 100 = complete kill) at 125 g/ha (corn (Zea mays); 125 g ai/ha) of 0%. The Corn plant response rating (crop injury, 0 = no effect, 100 = complete kill) at 250 g/ha (corn (Zea mays); 250 g ai/ha) was 0%, the Corn plant response rating (crop injury, 0 = no effect, 100 = complete kill) at 500 g/ha (corn (Zea mays); 500 g ai/ha) was 0% and the pest or weed control at 31 g/ha ([1]; 31 g ai/ha) was 90%. For the same molecule, the pest or weed control at 62 g/ha ([1]; 62 g ai/ha) was 95%, the pest or weed control at 125 g/ha ([1]; 125 g ai/ha) was 98% and the pest or weed control at 250 g/ha ([1]; 250 g ai/ha) was 100%. It also gave a pest or weed control at 500 g/ha ([1]; 500 g ai/ha) of 100%, a pest or weed control at 31 g/ha ([2]; 31 g ai/ha) of 0% and a pest or weed control at 62 g/ha ([2]; 62 g ai/ha) of 0%. The pest or weed control at 125 g/ha ([2]; 125 g ai/ha) was 0%, the pest or weed control at 250 g/ha ([2]; 250 g ai/ha) was 0% and the pest or weed control at 500 g/ha ([2]; 500 g ai/ha) was 0%. For the same molecule, the pest or weed control at 31 g/ha ([3]; 31 g ai/ha) was 0%, the pest or weed control at 62 g/ha ([3]; 62 g ai/ha) was 0% and the pest or weed control at 125 g/ha ([3]; 125 g ai/ha) was 0%. For the same molecule, the pest or weed control at 250 g/ha ([3]; 250 g ai/ha) was 0%, the plant injury at 31 g/ha (soybean (Glycine max); 31 g ai/ha) was 0% and the plant injury at 62 g/ha (soybean (Glycine max); 62 g ai/ha) was 0%. For the same molecule, the plant injury at 125 g/ha (soybean (Glycine max); 125 g ai/ha) was 0%, the plant injury at 250 g/ha (soybean (Glycine max); 250 g ai/ha) was 0% and the plant injury at 500 g/ha (soybean (Glycine max); 500 g ai/ha) was 0%. For the same molecule, the pest or weed control at 31 g/ha ([4]; 31 g ai/ha) was 80%, the pest or weed control at 62 g/ha ([4]; 62 g ai/ha) was 90% and the pest or weed control at 125 g/ha ([4]; 125 g ai/ha) was 95%. It also gave a pest or weed control at 250 g/ha ([4]; 250 g ai/ha) of 95%, a pest or weed control at 500 g/ha ([4]; 500 g ai/ha) of 98% and a pest or weed control at 31 g/ha ([5]; 31 g ai/ha) of 0%. It also gave a pest or weed control at 62 g/ha ([5]; 62 g ai/ha) of 0%, a pest or weed control at 125 g/ha ([5]; 125 g ai/ha) of 0% and a pest or weed control at 250 g/ha ([5]; 250 g ai/ha) of 0%. For the same molecule, the pest or weed control at 500 g/ha ([5]; 500 g ai/ha) was 0%, the pest or weed control at 31 g/ha ([6]; 31 g ai/ha) was 80% and the pest or weed control at 62 g/ha ([6]; 62 g ai/ha) was 90%. For the same molecule, the pest or weed control at 125 g/ha ([6]; 125 g ai/ha) was 95%, the pest or weed control at 250 g/ha ([6]; 250 g ai/ha) was 100% and the pest or weed control at 500 g/ha ([6]; 500 g ai/ha) was 100%. For the same molecule, the pest or weed control at 31 g/ha ([7]; 31 g ai/ha) was 0%, the pest or weed control at 62 g/ha ([7]; 62 g ai/ha) was 0% and the pest or weed control at 125 g/ha ([7]; 125 g ai/ha) was 0%. The pest or weed control at 250 g/ha ([7]; 250 g ai/ha) was 0%, the pest or weed control at 500 g/ha ([7]; 500 g ai/ha) was 0% and the pest or weed control at 31 g/ha ([8]; 31 g ai/ha) was 0%. It also gave a pest or weed control at 62 g/ha ([8]; 62 g ai/ha) of 0%, a pest or weed control at 125 g/ha ([8]; 125 g ai/ha) of 0% and a pest or weed control at 250 g/ha ([8]; 250 g ai/ha) of 0%. It also gave a pest or weed control at 500 g/ha ([8]; 500 g ai/ha) of 0%, a pest or weed control at 31 g/ha ([9]; 31 g ai/ha, scale 0 to 100) of 80% and a pest or weed control at 62 g/ha ([9]; 62 g ai/ha, scale 0 to 100) of 90%. For the same molecule, the pest or weed control at 125 g/ha ([9]; 125 g ai/ha, scale 0 to 100) was 90%, the pest or weed control at 250 g/ha ([9]; 250 g ai/ha, scale 0 to 100) was 90% and the pest or weed control at 500 g/ha ([9]; 500 g ai/ha, scale 0 to 100 (0 no effect, 100 complete control)) was 95%. The pest or weed control at 31 g/ha ([10]; 31 g ai/ha) was 0%, the pest or weed control at 62 g/ha ([10]; 62 g ai/ha) was 0% and the pest or weed control at 125 g/ha ([10]; 125 g ai/ha) was 0%. The pest or weed control at 250 g/ha ([10]; 250 g ai/ha) was 0% and the pest or weed control at 500 g/ha ([10]; 500 g ai/ha) was 10%.
